The values below come from patent US20100160335A1, “PYRIDAZINONE DERIVATIVE AND PDE INHIBITOR CONTAINING THE SAME AS ACTIVE INGREDIENT” (KYORIN PHARMACEUTICAL CO., LTD., priority 2007, published 2010).

Structures are written as SMILES.

Assay [1] deals with T1, PDE3A catalytic domain (PDE3Acat) (Homo sapiens, UniProt Q14432).
T1 construct: made in house; host or cells: Sf9 insect cells (baculovirus, Bac-to-Bac / Gateway)
The assay can be described thus: Phosphodiesterase inhibitory activity, PDE3 ([3H]cAMP, recombinant enzyme). The format is biochemical. Particulars: 30° C., 20 minutes, read-out: IC50(μmol/L) PDE3.

The next assay addresses T2, PDE4Bcat (Homo sapiens, UniProt Q07343).
T2 construct: made in house; host or cells: Sf9 insect cells (baculovirus, Bac-to-Bac / Gateway)
Description: Phosphodiesterase inhibitory activity, PDE4 ([3H]cAMP, recombinant enzyme). The following applies: 30° C., 20 minutes, read-out: IC50(μmol/L) PDE4. Type of assay: biochemical.

Assay [2] relates to histamine-induced bronchoconstriction in guinea pigs. The assay can be described thus: Histamine-induced bronchoconstriction reaction in guinea pigs. Type of assay: in vivo. The following applies: guinea pig, measured 30 seconds after administration; for inhibition in vivo at 0.3 mg/kg / inhibition in vivo at 0.1 mg/kg: Cavia porcellus, iv, 0.5 min, read-out: Inhibition rate (histamine-induced bronchoconstriction); for inhibition in vivo at 0.1 mg/kg: compound 0.1 mg/kg, i.v. (values in [ ]). The procedure: Guinea pigs were anesthetized with pentobarbital (30 mg/kg, i.p.). A cannula for intravenous administration was inserted into the left external jugular vein, a cannula for collecting blood and measuring blood pressure was inserted into the right internal carotid artery, and a tracheal cannula was inserted into the trachea. The guinea pigs were maintained on artificial respiration under the conditions of 60 times/min and 10 mL/kg/stroke. The airflow from the side branch of the tracheal cannula was measured by a bronchospasm transducer (Ugo-Basile) and recorded on a computer via Power Lab (ADInstruments Japan). The guinea pigs were immobilized with gallamine (10 mg/kg, i.v.), and histamine (12.5 μg/kg, i.v.) was administered at 10-minute intervals. After the histamine-induced bronchoconstriction became stable, the compound (0.3 mg/kg, i.v.) was administered. The histamine-induced bronchoconstriction reaction was measured 30 seconds after the compound administration to examine the bronchoconstriction inhibitory activity of the compound. The bronchoconstriction was recorded as the airflow value, and the results were represented by the ratio of the maximum value of the histamine- induced airflow 30 seconds after the administration to the maximum value of the airflow before the administration. Also, the test compounds dissolved in DMSO were used. Further, the indications were as follows: inhibition rate≧90% (+++), 90%>inhibition rate≧80% (++), and 80%>inhibition rate≧70% (+). [ ] means the results in the case of 0.1 mg/kg, i.v.

T1 sequence (Q14432 674-1093 limits assumed): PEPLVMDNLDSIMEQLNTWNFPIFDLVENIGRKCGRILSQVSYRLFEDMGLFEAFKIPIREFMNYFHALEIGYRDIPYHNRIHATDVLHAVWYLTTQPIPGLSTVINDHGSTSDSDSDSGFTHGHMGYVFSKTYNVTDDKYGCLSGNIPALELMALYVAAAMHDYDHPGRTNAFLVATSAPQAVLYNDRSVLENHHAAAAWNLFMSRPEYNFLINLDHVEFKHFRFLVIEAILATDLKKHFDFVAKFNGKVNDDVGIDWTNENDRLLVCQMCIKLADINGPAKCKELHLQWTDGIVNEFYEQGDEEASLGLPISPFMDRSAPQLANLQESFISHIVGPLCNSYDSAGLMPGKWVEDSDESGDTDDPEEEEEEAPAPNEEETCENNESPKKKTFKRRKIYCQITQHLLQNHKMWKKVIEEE
T2 sequence (Q07343 330-659 limits assumed): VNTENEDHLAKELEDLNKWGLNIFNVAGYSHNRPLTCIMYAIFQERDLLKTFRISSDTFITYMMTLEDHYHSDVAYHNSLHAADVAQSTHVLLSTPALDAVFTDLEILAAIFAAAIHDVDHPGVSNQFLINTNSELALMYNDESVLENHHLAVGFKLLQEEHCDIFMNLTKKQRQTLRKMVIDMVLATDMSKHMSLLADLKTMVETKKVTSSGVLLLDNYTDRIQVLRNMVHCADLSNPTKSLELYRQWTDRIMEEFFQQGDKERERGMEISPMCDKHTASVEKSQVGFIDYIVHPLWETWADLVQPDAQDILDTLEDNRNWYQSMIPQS

In the case of `COc1ccc(C2=NN(CCCCOc3ccc(C4=NNC(=O)CC4C)cc3)C(=O)CC2C)c2ccc(C)nc12` (stereo not drawn) [Example 267, 6-(8-Methoxy-2-methylquinolin-5-yl)-5-methyl-2-[4-[4-(4-methyl-6-oxo-1,4,5,6-tetrahydropyridazin-3-yl)phenoxy]butyl]-4,5-dihydro-2H-pyridazin-3-one], the values for the IC50 (in assay [1]; on PDE4Bcat) were 0.1 to 1 µmol/L and less than 0.1 µmol/L, respectively. In assay [2] (compound 0.3 mg/kg, i.v.), the inhibition in vivo at 0.3 mg/kg is not below 90%.

For the molecule `CCc1ccc2c(C3=NN(CCCCOc4ccc(C5=NNC(=O)CC5C)c(F)c4F)C(=O)CC3C)ccc(OC)c2n1` (stereo not drawn) [Example 295, 6-(2-Ethyl-8-methoxyquinolin-5-yl)-5-methyl-2-[4-[2,3-difluoro-4-(4-methyl-6-oxo-1,4,5,6-tetrahydropyridazin-3-yl)phenoxy]butyl]-4,5-dihydro-2H-pyridazin-3-one], the IC50 (in assay [1]; at PDE4Bcat) was less than 0.1 µmol/L each time. Also, the inhibition in vivo at 0.1 mg/kg in assay [2] lay in the range of 80 to 90%.

On to `CCc1ccc2c(-c3ccc(=O)n(CCCCOc4ccc(C5=NNC(=O)CC5C)cc4OC)n3)ccc(OC)c2n1` (stereo not drawn) [Example 288, 6-(2-Ethyl-8-methoxyquinolin-5-yl)-2-[4-[2-methoxy-4-(4-methyl-6-oxo-1,4,5,6-tetrahydropyridazin-3-yl)phenoxy]butyl]-2H-pyridazin-3-one], for which the IC50 (in assay [1]; on PDE4Bcat) was 0.1 to 1 µmol/L in each case. In addition, in assay [2] (compound 0.3 mg/kg, i.v.), the inhibition in vivo at 0.3 mg/kg was in the range of 80 to 90%.

With `COc1ccc(-c2ccc(=O)n(CCCCOc3ccc(C4=NNC(=O)CC4)cc3F)n2)c2ccc(C)nc12` [Example 272, 2-[4-[2-Fluoro-4-(6-oxo-1,4,5,6-tetrahydropyridazin-3-yl)phenoxy]butyl}-6-(8-methoxy-2-methylquinolin-5-yl)-2H-pyridazin-3-one], the IC50 in assay [1] was 0.1 to 1 µmol/L; on PDE4Bcat it was less than 0.1 µmol/L. Moreover, in assay [2] (compound 0.3 mg/kg, i.v.), the inhibition in vivo at 0.3 mg/kg lay in the range of 70 to 80%.

Regarding `CCc1ccc2c(C3=NN(CCCOc4ccc(C5=NNC(=O)CC5C)cc4)C(=O)CC3C)ccc(OC)c2n1` (stereo not drawn) [Example 292], the figures for the IC50 (in assay [1]; at PDE4Bcat) were 1 to 10 µmol/L and 0.1 to 1 µmol/L, respectively. Moreover, the inhibition in vivo at 0.3 mg/kg in assay [2] (compound 0.3 mg/kg, i.v.) lay in the range of 80 to 90%.

Turning to `COc1ccc(-c2ccc(=O)n(CCCCOc3ccc(C4=NNC(=O)CC4)c(F)c3F)n2)c2nc(C(F)(F)F)[nH]c12` [Example 278, 2-[4-[2,3-Difluoro-4-(6-oxo-1,4,5,6-tetrahydropyridazin-3-yl)phenoxy]butyl]-6-(4-methoxy-2-trifluoromethyl-1H-benzimidazol-7-yl)-2H-pyridazin-3-one], the IC50 was less than 0.1 µmol/L in assay [1] and 1 to 10 µmol/L at PDE4Bcat. The inhibition in vivo at 0.3 mg/kg in assay [2] (compound 0.3 mg/kg, i.v.) was not below 90%.

As for `CCc1ccc2c(C3=NN(CCCCOc4ccc(C5=NNC(=O)CC5C)cc4)C(=O)CC3C)ccc(OC)c2n1` (single isomer, unassigned) [Example 342, 6-(2-Ethyl-8-methoxyquinolin-5-yl)-5-methyl-2-[4-[4-(4-methyl-6-oxo-1,4,5,6-tetrahydropyridazin-3-yl)phenoxy]butyl]-4,5-dihydro-2H-pyridazin-3-one], the figures for the IC50 (in assay [1]; on PDE4Bcat) were less than 0.1 µmol/L and 0.1 to 1 µmol/L, respectively. Besides, in assay [2] (compound 0.3 mg/kg, i.v.), the “Inhibition rate (histamine-induced bronchoconstriction)” value is listed as “+++ (inhibition rate≧90% (+++))”.

In the case of `COc1ccc(-c2ccc(=O)n(CCCCOc3ccc(C4=NNC(=O)CC4)c(F)c3F)n2)c2nc(C(F)(F)F)nn12` [Example 305, 2-[4-[2,3-Difluoro-4-(6-oxo-1,4,5,6-tetrahydropyridazin-3-yl)phenoxy]butyl]-6-(5-methoxy-2-trifluoromethyl-[1,2,4]triazolo[1,5-a]pyridin-8-yl)-2H-pyridazin-3-one], the IC50 in assay [1] was in the range of 0.1 to 1 µmol/L; on PDE4Bcat it was 1 to 10 µmol/L. In addition, in assay [2] (compound 0.3 mg/kg, i.v.), the inhibition in vivo at 0.3 mg/kg was not below 90%.

With `CCc1ccc2c(C3=NN(CCCCOc4ccc(C5=NNC(=O)C5(C)C)cc4OC)C(=O)CC3C)ccc(OC)c2n1` (stereo not drawn) [Example 301, 6-(2-Ethyl-8-methoxyquinolin-5-yl)-5-methyl-2-[4-[2-methoxy-4-(4,4-dimethyl-5-oxo-4,5-dihydro-1H-pyrazol-3-yl)phenoxy]butyl]-4,5-dihydro-2H-pyridazin-3-one], the IC50 in assay [1] was not below 10 µmol/L; at PDE4Bcat, 0.1 to 1 µmol/L. For the same molecule, the inhibition in vivo at 0.3 mg/kg in assay [2] (compound 0.3 mg/kg, i.v.) was in the range of 80 to 90%.

As for `CCc1ccc2c(C3=NN(CCCCOc4ccc(C5=NNC(=O)CC5)cc4)C(=O)CC3C)ccc(OC)c2n1` (stereo not drawn) [Example 296, 6-(2-Ethyl-8-methoxyquinolin-5-yl)-5-methyl-2-[4-[4-(6-oxo-1,4,5,6-tetrahydropyridazin-3-yl)phenoxy]butyl]-4,5-dihydro-2H-pyridazin-3-one], the IC50 in assay [1] was 1 to 10 µmol/L; on PDE4Bcat, less than 0.1 µmol/L. Further, in assay [2], the inhibition in vivo at 0.1 mg/kg lay in the range of 80 to 90%.

Turning to `COc1ccc(-c2ccc(=O)n(CCCCOc3ccc(C4=NNC(=O)CC4C)c(F)c3F)n2)c2nc(C(F)(F)F)nn12` (stereo not drawn) [Example 304, 2-[4-[2,3-Difluoro-4-(4-methyl-6-oxo-1,4,5,6-tetrahydropyridazin-3-yl)phenoxy]butyl]-6-(5-methoxy-2-trifluoromethyl-[1,2,4]triazolo [1,5-a]pyridin-8-yl)-2H-pyridazin-3-one], the IC50 in assay [1] was less than 0.1 µmol/L; at PDE4Bcat, 1 to 10 µmol/L. For the same molecule, in assay [2] (compound 0.3 mg/kg, i.v.), the inhibition in vivo at 0.3 mg/kg is not below 90%.

With `CCc1ccc2c(C3=NN(CCCCOc4ccc(C5=NNC(=O)CC5C)cc4OC)C(=O)CC3C)ccc(OC)c2n1` (stereo not drawn) [Example 293, 6-(2-Ethyl-8-methoxyquinolin-5-yl)-5-methyl-2-[4-[2-methoxy-4-(4-methyl-6-oxo-1,4,5,6-tetrahydropyridazin-3-yl)phenoxy]butyl]-4,5-dihydro-2H-pyridazin-3-one], the IC50 (in assay [1]; at PDE4Bcat) was 0.1 to 1 µmol/L each time. Further, in assay [2], the inhibition in vivo at 0.1 mg/kg is 70 to 80%.

Consider `COc1ccc(-c2ccc(=O)n(CCCCOc3ccc(C4=NNC(=O)CC4C)cc3)n2)c2cccnc12` (stereo not drawn) [Example 318, 6-(8-Methoxyquinolin-5-yl)-2-[4-[4-(4-methyl-6-oxo-1,4,5,6-tetrahydropyridazin-3-yl)phenoxy]butyl]-2H-pyridazin-3-one], for which the IC50 in assay [1] is less than 0.1 µmol/L; at PDE4Bcat, 0.1 to 1 µmol/L. Moreover, the inhibition in vivo at 0.3 mg/kg in assay [2] (compound 0.3 mg/kg, i.v.) was not below 90%.

`CCc1ccc2c(C3=NN(CCCCOc4ccc(C5=NNC(=O)C5(C)C)cc4)C(=O)CC3C)ccc(OC)c2n1` (stereo not drawn) [Example 300, 6-(2-Ethyl-8-methoxyquinolin-5-yl)-5-methyl-2-[4-[4-(4,4-dimethyl-5-oxo-4,5-dihydro-1H-pyrazol-3-yl)phenoxy]butyl]-4,5-dihydro-2H-pyridazin-3-one]: the IC50 in assay [1] was 1 to 10 µmol/L; at PDE4Bcat, less than 0.1 µmol/L. Also, the inhibition in vivo at 0.3 mg/kg in assay [2] (compound 0.3 mg/kg, i.v.) lay in the range of 70 to 80%.

Regarding `CCc1ccc2c(-c3ccc(=O)n(CCCCOc4ccc(C5=NNC(=O)C5(C)C)c(F)c4F)n3)ccc(OC)c2n1` [Example 290, 6-(2-Ethyl-8-methoxyquinolin-5-yl)-2-[4-[2,3-difluoro-4-(4,4-dimethyl-5-oxo-4,5-dihydro-1H-pyrazol-3-yl)phenoxy]butyl]-2H-pyridazin-3-one], the IC50 (in assay [1]; at PDE4Bcat) was less than 0.1 µmol/L each time. Further, the inhibition in vivo at 0.3 mg/kg in assay [2] (compound 0.3 mg/kg, i.v.) is not below 90%.

`CCc1ccc2c(-c3ccc(=O)n(CCCCOc4ccc(C5=NNC(=O)CC5C)cc4F)n3)ccc(OC)c2n1` (stereo not drawn) [Example 287, 6-(2-Ethyl-8-methoxyquinolin-5-yl)-2-[4-[2-fluoro-4-(4-methyl-6-oxo-1,4,5,6-tetrahydropyridazin-3-yl)phenoxy]butyl]-2H-pyridazin-3-one]: the IC50 (in assay [1]; on PDE4Bcat) was less than 0.1 µmol/L in each case. Also, the inhibition in vivo at 0.3 mg/kg in assay [2] (compound 0.3 mg/kg, i.v.) was not below 90%.

For `COc1ccc(C2=NN(CCCCOc3ccc(C4=NNC(=O)CC4C)cc3)C(=O)CC2C)c2ccc(C(C)C)nc12` (stereo not drawn) [Example 269, 6-(8-Methoxy-2-isopropylquinolin-5-yl)-5-methyl-2-[4-[4-(4-methyl-6-oxo-1,4,5,6-tetrahydropyridazin-3-yl)phenoxy]butyl]-4,5-dihydro-2H-pyridazin-3-one], the IC50 in assay [1] is less than 0.1 µmol/L; on PDE4Bcat, 0.1 to 1 µmol/L. The inhibition in vivo at 0.1 mg/kg in assay [2] fell in the range of 80 to 90%.

Take `COc1ccc(-c2ccc(=O)n(CCCCOc3ccc(C4=NNC(=O)CC4C)c(F)c3F)n2)c2ccc(C)nc12` (stereo not drawn) [Example 273, 2-[4-[2,3-Difluoro-4-(4-methyl-6-oxo-1,4,5,6-tetrahydropyridazin-3-yl)phenoxy]butyl]-6-(8-methoxy-2-methylquinolin-5-yl)-2H-pyridazin-3-one]: the IC50 (in assay [1]; at PDE4Bcat) was less than 0.1 µmol/L in each case. In assay [2] (compound 0.3 mg/kg, i.v.), the inhibition in vivo at 0.3 mg/kg is not below 90%.
